Test system: human PCSK9 locus
Experiment: Secreted PCSK9 by ELISA (normalized to total cell count) in Huh7 cells transfected with mRNA and gRNA
Type: cell-based
Conditions: for Secreted PCSK9 / Percent reduction in PCSK9 secretion / Average percent reduction in PCSK9 secretion: Huh7 cells, 6 days post-transfection; for Secreted PCSK9: normalized to total cell count; for Percent reduction in PCSK9 secretion: relative to non-targeting gRNA control; for Average percent reduction in PCSK9 secretion: averaged from the two doses
Description: To assess PCSK9 secretion, seeded Huh7 cells were transfected with mRNA encoding a catalytically-active CasX 676, dXR1, or LTRP5-ADD-ZIM3 and a gRNA with scaffold 316 and spacer targeting either the B2M or PCSK9 locus. Media supernatant was harvested at 6, 18, 36, and 87 days post-transfection to assess level of PCSK9 secretion by ELISA. Levels of PCSK9 secretion were normalized to total cell count. As an additional control, PCSK9 secretion was also measured in the media supernatant harvested from wells containing untreated, naïve cells.
The following three human hepatocyte cancer cell lines were used in this experiment: HepG2 cells, Hep3B cells, and Huh7 cells. ˜15,000 cells of each cell line were seeded per well; the next day, seeded cells were transfected with mRNA encoding a catalytically-active CasX 676, dXR1, or LTRP5-ADD-ZIM3 and a gRNA with scaffold 316 and spacer targeting either the B2M or PCSK9 locus (see Table 23 for specific spacers and sequences). Media supernatant was harvested at 4 days post-transfection to assess level of PCSK9 secretion by ELISA, and levels of PCSK9 secretion were normalized to total cell count and illustrated in FIGS. 11A-11C. Culturing of treated Huh7 cells continued, and media supernatant was harvested at 14 and 27 days post-transfection for measuring PCSK9 secretion by ELISA. As an additional experimental control, PCSK9 secretion was also measured in the media supernatant harvested from wells containing untreated, naïve cells.
To assess PCSK9 secretion, seeded Huh7 cells were co-transfected with mRNA encoding for LTRP5-ADD-ZIM3 and a gRNA with scaffold 316 and spacer targeting the PCSK9 locus using Lipofectamine™ 3000. Two doses of total RNA input at a 2:1 mass ratio of mRNA to gRNA were used for screening: 50 ng mRNA: 25 ng gRNA and 25 ng mRNA: 12.5 ng gRNA. Media supernatant was harvested at 6 days post-transfection to assess level of PCSK9 secretion by ELISA (Table 74). Levels of PCSK9 secretion were normalized to total cell count. As an additional control, PCSK9 secretion was also measured in the media supernatant harvested from cells transfected with mRNA encoding for mScarlet.

[1] = 25 ng mRNA:12.5 ng gRNA, paired with LTRP5-ADD-ZIM3 mRNA
[2] = 50 ng mRNA:25 ng gRNA, paired with LTRP5-ADD-ZIM3 mRNA
[3] = paired with LTRP5-ADD-ZIM3 mRNA

AAACUUAGCCUGGACCCCCU (listed as RNA, chemistry not given here) [spacer 6.140, Promoter]
Secreted PCSK9 [1]: 59.94 ng/mL | Percent reduction in PCSK9 secretion [1]: 15.87% | Secreted PCSK9 [2]: 61.68 ng/mL | Percent reduction in PCSK9 secretion [2]: 25.04% | Average percent reduction in PCSK9 secretion [3]: 20.45%

ACUGGCCUUAACCUGGCAGC (listed as RNA, chemistry not given here) [spacer 6.141, Promoter]
Secreted PCSK9 [1]: 12.58 ng/mL | Percent reduction in PCSK9 secretion [1]: 82.34% | Secreted PCSK9 [2]: 13.86 ng/mL | Percent reduction in PCSK9 secretion [2]: 83.16% | average reduction in secreted PCSK9 levels (Huh7, LTRP5-ADD-ZIM3 mRNA + gRNA scaffold 316 (v1), 6 days, averaged from two doses (50 ng mRNA:25 ng gRNA, 25 ng:12.5 ng), relative to non-targeting gRNA): 82.75% | Average percent reduction in PCSK9 secretion [3]: 82.75%

ACUUUGUUUGCAAAGACCUC (listed as RNA, chemistry not given here) [spacer 6.117, Promoter]
Secreted PCSK9 [1]: 98.05 ng/mL | Percent reduction in PCSK9 secretion [1]: 37.62% | Secreted PCSK9 [2]: 68.98 ng/mL | Percent reduction in PCSK9 secretion [2]: 16.16% | Average percent reduction in PCSK9 secretion [3]: 10.73%

AGAAAGAGCAAGCCUCAUGU (listed as RNA, chemistry not given here) [spacer 6.125, Promoter]
Secreted PCSK9 [1]: 46.11 ng/mL | Percent reduction in PCSK9 secretion [1]: 35.28% | Secreted PCSK9 [2]: 24.93 ng/mL | Percent reduction in PCSK9 secretion [2]: 69.7% | Average percent reduction in PCSK9 secretion [3]: 52.49%

AGAAAUCAACUGGACAAGCA (listed as RNA, chemistry not given here) [spacer 6.128, Promoter]
Secreted PCSK9 [1]: 62.29 ng/mL | Percent reduction in PCSK9 secretion [1]: 12.57% | Secreted PCSK9 [2]: 42.21 ng/mL | Percent reduction in PCSK9 secretion [2]: 48.7% | Average percent reduction in PCSK9 secretion [3]: 30.63%

AGAAGAUUCAAUUUGCAAAG (listed as RNA, chemistry not given here) [spacer 6.132, Promoter]
Secreted PCSK9 [1]: 75.01 ng/mL | Percent reduction in PCSK9 secretion [1]: 5.29% | Secreted PCSK9 [2]: 56.68 ng/mL | Percent reduction in PCSK9 secretion [2]: 31.11% | Average percent reduction in PCSK9 secretion [3]: 12.91%

AGCCCAGUUAGGAUUUGGGA (listed as RNA, chemistry not given here) [spacer 6.149, Promoter]
Secreted PCSK9 [1]: 38.33 ng/mL | Percent reduction in PCSK9 secretion [1]: 46.21% | Secreted PCSK9 [2]: 21.18 ng/mL | Percent reduction in PCSK9 secretion [2]: 74.26% | Average percent reduction in PCSK9 secretion [3]: 60.23%

AGGAGCAGCUAGUUGGUAAG (listed as RNA, chemistry not given here) [spacer 6.139, Promoter]
Secreted PCSK9 [1]: 25.45 ng/mL | Percent reduction in PCSK9 secretion [1]: 64.28% | Secreted PCSK9 [2]: 15.03 ng/mL | Percent reduction in PCSK9 secretion [2]: 81.73% | Average percent reduction in PCSK9 secretion [3]: 73.01%

AGGGAUUUAUACUACAAAGA (listed as RNA, chemistry not given here) [spacer 6.138, Promoter]
Secreted PCSK9 [1]: 30.87 ng/mL | Percent reduction in PCSK9 secretion [1]: 56.67% | Secreted PCSK9 [2]: 18.99 ng/mL | Percent reduction in PCSK9 secretion [2]: 76.92% | repression of PCSK9 secretion by spacer (Huh7, paired with LTRP5-ADD-ZIM3 mRNA, scaffold 316, days 4, 14, 27): most effective repression of PCSK9 secretion | Average percent reduction in PCSK9 secretion [3]: 66.79%

CAGUACGUUCCAGGCAUUCA (listed as RNA, chemistry not given here) [spacer 6.171, Intron 1]
Secreted PCSK9 [1]: 55.95 ng/mL | Percent reduction in PCSK9 secretion [1]: 21.46% | Secreted PCSK9 [2]: 52.41 ng/mL | Percent reduction in PCSK9 secretion [2]: 36.3% | Average percent reduction in PCSK9 secretion [3]: 28.88%

CAGUAUCGACAGCCCUUCCA (listed as RNA, chemistry not given here) [spacer 6.124, Promoter]
Secreted PCSK9 [1]: 30.59 ng/mL | Percent reduction in PCSK9 secretion [1]: 57.06% | Secreted PCSK9 [2]: 16.54 ng/mL | Percent reduction in PCSK9 secretion [2]: 79.9% | Average percent reduction in PCSK9 secretion [3]: 68.48%

CCUUUGUUUCUUCCCAGUAU (listed as RNA, chemistry not given here) [spacer 6.122, Promoter]
Secreted PCSK9 [1]: 86.06 ng/mL | Percent reduction in PCSK9 secretion [1]: 20.79% | Secreted PCSK9 [2]: 79.36 ng/mL | Percent reduction in PCSK9 secretion [2]: 3.54% | Average percent reduction in PCSK9 secretion [3]: 8.63%

CCUUUUCAUCCUCCUGCCUG (listed as RNA, chemistry not given here) [spacer 6.126, Promoter]
Secreted PCSK9 [1]: 44.82 ng/mL | Percent reduction in PCSK9 secretion [1]: 37.09% | Secreted PCSK9 [2]: 23.48 ng/mL | Percent reduction in PCSK9 secretion [2]: 71.46% | Average percent reduction in PCSK9 secretion [3]: 54.27%

CGCGCCCUGCUCCUGAACUU (listed as RNA, chemistry not given here) [spacer 6.160, Exon 1]
Secreted PCSK9 [1]: 48.67 ng/mL | Percent reduction in PCSK9 secretion [1]: 31.69% | Secreted PCSK9 [2]: 20.63 ng/mL | Percent reduction in PCSK9 secretion [2]: 74.93% | Average percent reduction in PCSK9 secretion [3]: 53.31%

CGGGGUUGGGAGACCCGGAG (listed as RNA, chemistry not given here) [spacer 6.169, Intron 1]
Secreted PCSK9 [1]: 62.55 ng/mL | Percent reduction in PCSK9 secretion [1]: 12.2% | Secreted PCSK9 [2]: 66.39 ng/mL | Percent reduction in PCSK9 secretion [2]: 19.3% | Average percent reduction in PCSK9 secretion [3]: 15.75%

CUCGGAAUCUGCUGUGCAUC (listed as RNA, chemistry not given here) [spacer 6.120, Promoter]
Secreted PCSK9 [1]: 47.97 ng/mL | Percent reduction in PCSK9 secretion [1]: 32.67% | Secreted PCSK9 [2]: 21.43 ng/mL | Percent reduction in PCSK9 secretion [2]: 73.95% | Average percent reduction in PCSK9 secretion [3]: 53.31%

CUCUGCGCGUAAUCUGACGC (listed as RNA, chemistry not given here) [spacer 6.151, Promoter]
Secreted PCSK9 [1]: 66.42 ng/mL | Percent reduction in PCSK9 secretion [1]: 6.77% | Secreted PCSK9 [2]: 53.44 ng/mL | Percent reduction in PCSK9 secretion [2]: 35.05% | Average percent reduction in PCSK9 secretion [3]: 20.91%

GAAGUCUCACUGGUCAGCAG (listed as RNA, chemistry not given here) [spacer 6.146, Promoter]
Secreted PCSK9 [1]: 20.34 ng/mL | Percent reduction in PCSK9 secretion [1]: 71.45% | Secreted PCSK9 [2]: 40.84 ng/mL | Percent reduction in PCSK9 secretion [2]: 50.36% | Average percent reduction in PCSK9 secretion [3]: 60.9%

GAAUCAAUCCUACUGUGGAC (listed as RNA, chemistry not given here) [spacer 6.143, Promoter]
Secreted PCSK9 [1]: 22.33 ng/mL | Percent reduction in PCSK9 secretion [1]: 68.66% | Secreted PCSK9 [2]: 38.69 ng/mL | Percent reduction in PCSK9 secretion [2]: 52.97% | Average percent reduction in PCSK9 secretion [3]: 60.81%

From patent publication US12551573B2, “Compositions and methods for the targeting of PCSK9” (Scribe Therapeutics Inc., priority 2022, dated 2026)
